We go through 21 compounds from ChEMBL document CHEMBL5584270, “Synthesis and Evaluation of 1,3-Disubstituted Imidazolidine-2,4,5-triones as Inhibitors of Pyruvate Carboxylase” (ACS Med Chem Lett, 2024).

Test [1] deals with T1, Pyruvate carboxylase (Staphylococcus aureus (strain Mu50 / ATCC 700699), UniProt A0A0H3JRU9).
T1 sequence (A0A0H3JRU9 whole entry): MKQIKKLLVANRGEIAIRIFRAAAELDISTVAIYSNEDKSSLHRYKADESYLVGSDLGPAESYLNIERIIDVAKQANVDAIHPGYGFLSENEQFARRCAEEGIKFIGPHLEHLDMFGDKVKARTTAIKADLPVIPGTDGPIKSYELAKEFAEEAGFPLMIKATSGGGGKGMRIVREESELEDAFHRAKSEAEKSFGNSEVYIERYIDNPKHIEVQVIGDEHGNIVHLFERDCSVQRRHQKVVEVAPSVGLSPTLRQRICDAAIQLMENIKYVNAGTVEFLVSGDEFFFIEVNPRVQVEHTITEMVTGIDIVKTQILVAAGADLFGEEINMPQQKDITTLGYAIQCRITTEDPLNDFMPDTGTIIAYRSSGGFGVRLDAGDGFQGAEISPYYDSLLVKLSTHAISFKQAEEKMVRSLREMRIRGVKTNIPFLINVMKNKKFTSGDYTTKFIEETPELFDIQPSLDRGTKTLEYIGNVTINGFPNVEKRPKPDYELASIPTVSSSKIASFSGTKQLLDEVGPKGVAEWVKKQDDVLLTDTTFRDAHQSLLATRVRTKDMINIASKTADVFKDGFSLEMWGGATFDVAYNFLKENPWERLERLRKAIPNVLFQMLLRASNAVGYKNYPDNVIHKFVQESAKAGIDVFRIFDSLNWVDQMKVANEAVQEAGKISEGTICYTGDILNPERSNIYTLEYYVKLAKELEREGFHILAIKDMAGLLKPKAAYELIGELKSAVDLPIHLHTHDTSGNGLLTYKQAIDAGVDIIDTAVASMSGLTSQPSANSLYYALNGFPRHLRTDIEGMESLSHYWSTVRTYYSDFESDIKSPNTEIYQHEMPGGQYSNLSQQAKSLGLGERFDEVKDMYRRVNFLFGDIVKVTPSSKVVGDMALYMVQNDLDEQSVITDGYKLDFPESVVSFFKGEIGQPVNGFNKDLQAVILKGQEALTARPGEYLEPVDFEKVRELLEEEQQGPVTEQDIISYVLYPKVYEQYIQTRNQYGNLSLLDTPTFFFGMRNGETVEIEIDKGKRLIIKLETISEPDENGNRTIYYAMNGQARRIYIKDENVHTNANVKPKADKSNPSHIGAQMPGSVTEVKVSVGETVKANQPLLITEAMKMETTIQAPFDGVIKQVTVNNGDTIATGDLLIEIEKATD
The test is described as follows: Inhibition of Staphylococcus aureus Pyruvate carboxylase using pyruvate, HCO3-, ATP and NADH as substrate assessed as oxaloacetate formation by measuring NADH oxidation by spectrophotometry based malate dehydrogenase coupled enzyme assay.

For a further test, the species on record is Homo sapiens. Description: Inhibition of MDH (unknown origin).
Test [2] has as its target T1, Pyruvate carboxylase. Description: Non-competitive inhibition of Staphylococcus aureus pyruvate carboxylase assessed as inhibition constant pretreated with ATP followed by pyruvate, HCO3- and NADH addition by steady state kinetic analysis.
Test [3] concerns the target T1, Pyruvate carboxylase. The test is described as follows: Mixed type inhibition of Staphylococcus aureus pyruvate carboxylase assessed as inhibition constant pretreated with pyruvate followed by ATP, HCO3- and NADH addition by steady state kinetic analysis.
Test [4] addresses Carbonic anhydrase 2 (Homo sapiens) (UniProt P00918). The test is described as follows: Inhibition of human CA2 at 200 uM.
The target in test [5] is Macrophage metalloelastase (Homo sapiens) (UniProt P39900). Description: Inhibition of MMP-12 (unknown origin) at 50 uM.
Sequence of Macrophage metalloelastase (Homo sapiens) (P39900 106-470 limits assumed): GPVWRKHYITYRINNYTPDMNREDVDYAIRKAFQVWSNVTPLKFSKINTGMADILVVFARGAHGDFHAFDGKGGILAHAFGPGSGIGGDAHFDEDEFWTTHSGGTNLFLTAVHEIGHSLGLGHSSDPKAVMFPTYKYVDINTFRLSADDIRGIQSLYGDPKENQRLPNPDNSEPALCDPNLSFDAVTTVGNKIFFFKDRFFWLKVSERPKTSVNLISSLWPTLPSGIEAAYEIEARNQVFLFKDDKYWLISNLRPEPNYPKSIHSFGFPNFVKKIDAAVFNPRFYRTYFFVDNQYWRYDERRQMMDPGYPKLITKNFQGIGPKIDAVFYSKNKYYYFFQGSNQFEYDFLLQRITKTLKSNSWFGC
The test system of a further test is Pseudomonas syringae. The test is described as follows: Inhibition of Pseudomonas syringae guanidine carboxylase using urea as substrate at 200 uM by coupled enzyme assay.
Test [6] addresses T1, Pyruvate carboxylase. Description: Mixed type inhibition of Staphylococcus aureus pyruvate carboxylase assessed as inhibition constant pretreated with ATP followed by pyruvate, HCO3- and NADH addition by steady state kinetic analysis.
Test [7] concerns the target T1, Pyruvate carboxylase. The test is described as follows: Inhibition of Staphylococcus aureus pyruvate carboxylase by FVB based high-throughput fixed time assay.

Structures are written as SMILES. Active and inactive are the calls of the source. The calls are words filed in the database; no cut-off is given here.

The IC50 is the midpoint of a concentration-inhibition curve. The term Ki denotes the equilibrium dissociation constant of an inhibitor or competing ligand from its target.

Consider `O=C(O)CN1C(=O)C(=O)N(Cc2ccccc2)C1=O`, for which the IC50 at Pyruvate carboxylase [1] came out at 30 µM. Besides, the inhibition entry (in the test listed under Homo sapiens; in [4]; in test [5]; in the test with Pseudomonas syringae) was “inactive” throughout. Further, the Ki on Pyruvate carboxylase [2] was 140 µM; at Pyruvate carboxylase [3], 9 µM.
Regarding `O=C1C(=O)N(c2ccccc2)C(=O)N1CCc1cccs1`, at Pyruvate carboxylase [1], the IC50 was found to be 92 µM. In addition, in the test filed under Homo sapiens, the inhibition result was “inactive”.
The matching figures for `O=C1C(=O)N(C2CCCc3ccccc32)C(=O)N1c1ccccc1` (configuration not stated): 59 µM and “inactive”.
As to `CCOC(=O)CN1C(=O)C(=O)N(Cc2ccccc2)C1=O`, the IC50 on Pyruvate carboxylase [1] stood at 7.3 µM. Also, the inhibition result (in the test filed under Homo sapiens; in test [4]; in test [5]; with Pseudomonas syringae) was “inactive” throughout. For the same compound, the inhibitory constant (Ki) on Pyruvate carboxylase [6] came to 7 µM; on Pyruvate carboxylase [3], 0.58 µM.
As to `CN1C(=O)C(=O)N(CC(=O)c2cccs2)C1=O`, the IC50 against Pyruvate carboxylase [7] worked out at 35 µM; on Pyruvate carboxylase [1], 45 µM. For the same compound, the inhibition result (in the test filed under Homo sapiens; in [4]; in test [5]; in the test on Pseudomonas syringae) was “inactive” each time. In addition, the Ki at Pyruvate carboxylase [2] came to 38 µM; on Pyruvate carboxylase [3] it was 5.2 µM.
With `COC(=O)CCN1C(=O)C(=O)N(Cc2ccccc2)C1=O`, the 50% inhibitory concentration (IC50) on Pyruvate carboxylase [1] is 68 µM. Moreover, the inhibition entry in the test listed under Homo sapiens is “inactive”.
As for `O=C1C(=O)N(c2ccccc2)C(=O)N1CCc1ccccc1`, the concentration for half-maximal inhibition (IC50) at Pyruvate carboxylase [1] is 370 µM. In addition, in the test listed under Homo sapiens, the inhibition entry is “inactive”.
Consider `CCOC(=O)CN1C(=O)C(=O)N(CCc2cccs2)C1=O`, for which the concentration for half-maximal inhibition (IC50) at Pyruvate carboxylase [1] came out at 7.9 µM. In addition, the inhibition entry (in the test filed under Homo sapiens; in test [4]; in test [5]; with Pseudomonas syringae) was “inactive” each time.
On to `CCOC(=O)CN1C(=O)C(=O)N(CCc2ccccc2)C1=O`, for which the IC50 at Pyruvate carboxylase [1] is 9.3 µM. The inhibition entry (in the test listed under Homo sapiens; in [4]; in test [5]; in the test with Pseudomonas syringae) was “inactive” in each case.
Regarding `CCOC(=O)CCN1C(=O)C(=O)N(c2ccc(F)cc2)C1=O`, the half-maximal inhibitory concentration (IC50) at Pyruvate carboxylase [1] worked out at 29 µM. Moreover, the inhibition result (in the test filed under Homo sapiens; in [4]; in [5]; in the test with Pseudomonas syringae) was “inactive” each time.
For `O=C1C(=O)N(c2ccccc2)C(=O)N1Cc1ccccc1`, the IC50 on Pyruvate carboxylase [1] was found to be 64 µM. Also, the inhibition entry (in the test listed under Homo sapiens; in test [4]; in test [5]; in the test with Pseudomonas syringae) was “inactive” in each case. The inhibition constant (Ki) came to 150 µM at Pyruvate carboxylase [2] and 24 µM at Pyruvate carboxylase [3].
Take `CCOC(=O)CN1C(=O)C(=O)N(c2ccccc2)C1=O`: at Pyruvate carboxylase [1], the 50% inhibitory concentration (IC50) came to 5.1 µM. For the same compound, the inhibition entry (in the test listed under Homo sapiens; in test [4]; in test [5]; with Pseudomonas syringae) was “inactive” throughout.
In the case of `CCOC(=O)CN1C(=O)C(=O)N(Cc2cccs2)C1=O`, the 50% inhibitory concentration (IC50) on Pyruvate carboxylase [1] turned out to be 5.2 µM. Further, the inhibition result (in the test listed under Homo sapiens; in test [4]; in test [5]; with Pseudomonas syringae) was “inactive” in each case. For the same compound, the Ki on Pyruvate carboxylase [2] was determined as 14 µM; at Pyruvate carboxylase [3], 1.8 µM.
In the case of `COc1ccc(N2C(=O)C(=O)N(Cc3ccccc3)C2=O)cc1`, on Pyruvate carboxylase [1], the IC50 is 17 µM. Also, the inhibition result (in the test listed under Homo sapiens; in test [4]; in test [5]; in the test on Pseudomonas syringae) was “inactive” each time.
Regarding `CCOC(=O)CN1C(=O)C(=O)N(c2ccc(F)cc2)C1=O`, the half-maximal inhibitory concentration (IC50) on Pyruvate carboxylase [1] was 3.4 µM. Also, the inhibition result (in the test listed under Homo sapiens; in [4]; in test [5]; in the test on Pseudomonas syringae) was “inactive” in each case.
With `CCCOC(=O)CN1C(=O)C(=O)N(c2ccccc2)C1=O`, the half-inhibitory concentration (IC50) at Pyruvate carboxylase [1] is 5 µM. The inhibition result (in the test filed under Homo sapiens; in test [4]; in [5]; with Pseudomonas syringae) was “inactive” throughout.
With `CC(c1ccccc1)N1C(=O)C(=O)N(c2ccccc2)C1=O` (configuration not stated), on Pyruvate carboxylase [1], the IC50 came to 35 µM. The inhibition entry in the test filed under Homo sapiens is “inactive”.
On the same counts, the results for `O=C1C(=O)N(c2ccc(Br)cc2)C(=O)N1Cc1ccccc1` are 290 µM and “inactive”.
The matching figures for `COC(=O)CN1C(=O)C(=O)N(c2ccccc2)C1=O`: 3.5 µM and “inactive”.
On the same counts, the results for `CCOC(=O)CN1C(=O)C(=O)N(CC(=O)OCC)C1=O` are 9 µM and “inactive”.
On to `CCOC(=O)CN1C(=O)C(=O)N(Cc2ccco2)C1=O`, for which the IC50 on Pyruvate carboxylase [1] is 12 µM. The inhibition result (in the test listed under Homo sapiens; in test [4]; in test [5]; with Pseudomonas syringae) was “inactive” throughout.
